Assay results: ChEMBL document CHEMBL4706623, “GPR52 Antagonist Reduces Huntingtin Levels and Ameliorates Huntington's Disease-Related Phenotypes” (J Med Chem, 2021); call rule not given here

Biological target: G-protein coupled receptor 52 (Homo sapiens, UniProt Q9Y2T5)
Assay: Antagonist activity at GPR52 (unknown origin) expressed in HEK293 cells assessed as inhibition of WO459-induced cAMP accumulation preincubated for 15 mins followed by WO459 addition and measured after 30 mins by LANCE Ultra cAMP kit based microplate reader analysis
Format: functional, cell-based

G-protein coupled receptor 52, sequence (Q9Y2T5 whole entry): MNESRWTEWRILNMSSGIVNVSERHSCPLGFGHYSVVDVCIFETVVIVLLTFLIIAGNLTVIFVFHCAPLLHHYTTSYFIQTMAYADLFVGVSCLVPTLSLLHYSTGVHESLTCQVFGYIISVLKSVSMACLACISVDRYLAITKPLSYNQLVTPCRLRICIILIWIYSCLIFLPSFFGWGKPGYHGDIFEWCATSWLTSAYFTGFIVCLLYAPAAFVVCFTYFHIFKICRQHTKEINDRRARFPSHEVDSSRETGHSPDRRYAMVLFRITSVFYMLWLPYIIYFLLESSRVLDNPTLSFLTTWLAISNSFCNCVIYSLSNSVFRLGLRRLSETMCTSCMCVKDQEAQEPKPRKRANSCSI

Row | SMILES | IC50 (read-out: IC50) [nM] | IC50 (hek293)
1 | Cc1cccc(C)c1C(=O)/C=C/CCc1ccccc1 | 2820 | 
2 | O=C(/C=C/CCc1ccccc1)c1ccccc1F | 1760 | 
3 | COc1ccc(C(=O)/C=C/CCc2ccccc2)cc1 | 3870 | 
4 | O=C(/C=C/CCc1ccccc1)c1ccc(F)cc1 |  | Not Active
5 | O=C(/C=C/CCc1ccc(Br)cc1)c1ccccc1 | 1810 | 
6 | O=C(/C=C/CCc1ccccc1)c1ccoc1 | 1520 | 
